According to patent publication US11236087B2, “Highly active pyrazolo-piperidine substituted indole-2-carboxamides active against the hepatitis B virus (HBV)” (AiCuris GmbH & Co. KG, priority 2017, dated 2022):
Where two headings read alike, the source gives them in different places.

Columns and labels:
HBV = experiment: Determination of HBV DNA from the supernatants of HepAD38 cells (anti-HBV activity); type: cell-based, hepatitis B virus; details: Hepatitis B virus, read-out: Cell Activity (EC50)
In short: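 HepAD38 cells, tetracycline withdrawn to induce HBV, treated with serial half-log compound dilutions; on day 6 HBV DNA purified from filtered supernatant and quantified by real-time PCR against HBV plasmid standards; EC50 from relative copy numbers by non-linear regression, three experiments in triplicate.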

HBV core protein = molecular target: T1, HBV core protein (UniProt P03146); experiment: Biochemical capsid assembly assay (fluorescence quenching); set-up: species or system hepatitis B virus; details: read-out: Assembly Activity (IC50); BODIPY-FL labelled core protein, 300 μM NaCl, read 6 min after start
T1 construct: fused on or other part: BODIPY-FL maleimide label on the C-terminal Cys150
T1 sequence (P03146 whole entry, looked up, the tested form may be a part): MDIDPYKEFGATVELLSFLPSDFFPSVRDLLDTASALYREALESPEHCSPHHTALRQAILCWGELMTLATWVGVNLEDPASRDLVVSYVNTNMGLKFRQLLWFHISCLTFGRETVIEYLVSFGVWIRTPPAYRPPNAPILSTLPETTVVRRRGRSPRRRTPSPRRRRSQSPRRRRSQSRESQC
In short: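 Purified E. coli-expressed HBV core protein (aa 1-149 plus Cys150), BODIPY-FL maleimide-labelled, at 1.0-2.0 μM in 50 mM HEPES pH 7.5 with 0.5% DMSO was used. Compounds were tested at 8 concentrations (0.5-log dilutions from 100, 31.6 or 10 μM). Assembly was started with NaCl ([…]), and fluorescence quenching was read after 6 min (ex 477/em 525 nm). EC50 was determined by non-linear regression.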

[1] = Cell viability assay (AlamarBlue) in HepAD38 cells; details: human
[2] = 144 h, HBV DNA in HepAD38 supernatant, day 6, qPCR

Compound	EC50 (HBV; [2])	IC50 (HBV core protein)	CC50 at 6 days [1]	EC50 (HBV; HePAD38, 144 h)
COCC1(N(C)C(=O)c2n[nH]c3c2CN(C(=O)c2cc4ccc(F)cc4[nH]2)CC3)CC1 [Example 166, 5-(6-fluoro-1H-indole-2-carbonyl)-N-[1-(methoxymethyl)cyclopropyl]-N-methyl-1H,4H,5H,6H,7H-pyrazolo[4,3-c]pyridine-3-carboxamide]	< 1 µM	< 5 µM	> 10 µM	
CON(C)C(=O)c1n[nH]c2c1CN(C(=O)c1cc3c(C(F)(F)F)cccc3[nH]1)CC2 [Example 129, N-methoxy-N-methyl-5-[4-(trifluoromethyl)-1H-indole-2-carbonyl]-1H,4H,5H,6H,7H-pyrazolo[4,3-c]pyridine-3-carboxamide]	< 1 µM	< 5 µM	> 32 µM	
O=C(c1cc2ccccc2[nH]1)N1CCc2[nH]nc(C(=O)N3CCC[C@H]3CO)c2C1 [Example 180, [(2S)-1-[5-(1H-indole-2-carbonyl)-1H,4H,5H,6H,7H-pyrazolo[4,3-c]pyridine-3-carbonyl]pyrrolidin-2-yl]methanol]	1 to 25 µM	< 100 µM	> 10 µM	
CN(C(=O)c1n[nH]c2c1CN(C(=O)c1cc3ccccc3[nH]1)CC2)C1(CCC(=O)O)CC1 [Example 245, 3-{1-[N-methyl 5-(1H-indole-2-carbonyl)-1H,4H,5H,6H,7H-pyrazolo[4,3-c]pyridine-3-amido]cyclopropyl}propanoic acid]	< 100 µM	5 to 10 µM	> 10 µM	
COCCN(C)C(=O)c1n[nH]c2c1CN(C(=O)c1cc3ccccc3[nH]1)CC2 [Example 54, 5-(1H-indole-2-carbonyl)-N-(2-methoxyethyl)-N-methyl-1H,4H,5H,6H,7H-pyrazolo[4,3-c]pyridine-3-carboxamide]	< 1 µM	< 5 µM	> 100 µM	
O=C(c1cc2ccccc2[nH]1)N1CCc2[nH]nc(NCc3ccccc3)c2C1 [Example 91, N-benzyl-5-(1H-indole-2-carbonyl)-1H,4H,5H,6H,7H-pyrazolo[4,3-c]pyridin-3-amine]	1 to 25 µM	5 to 10 µM	> 100 µM	
Cc1cccc2[nH]c(C(=O)N3CCc4[nH]nc(C(=O)N(C)OCCO)c4C3)cc12 [Example 197, N-(2-hydroxyethoxy)-N-methyl-5-(4-methyl-1H-indole-2-carbonyl)-1H,4H,5H,6H,7H-pyrazolo[4,3-c]pyridine-3-carboxamide]	< 1 µM	< 5 µM	> 10 µM	
O=C(c1cc2ccccc2[nH]1)N1CCc2[nH]nc(C3CCCO3)c2C1 (stereo not drawn) [Example 344, 2-[3-(oxolan-2-yl)-1H,4H,5H,6H,7H-pyrazolo[4,3-c]pyridine-5-carbonyl]-1H-indole]	< 1 µM	< 5 µM	> 10 µM	
CN(CCO)C(=O)c1n[nH]c2c1CN(C(=O)c1cc3c(Cl)cc(F)cc3[nH]1)CC2 [Example 60, 5-(4-chloro-6-fluoro-1H-indole-2-carbonyl)-N-(2-hydroxyethyl)-N-methyl-1H,4H,5H,6H,7H-pyrazolo[4,3-c]pyridine-3-carboxamide]	< 1 µM	< 5 µM	> 32 µM	
CC(C)(O)C1CN(C(=O)c2n[nH]c3c2CN(C(=O)c2cc4ccccc4[nH]2)CC3)C1 [Example 39, 2-{1-[5-(1H-indole-2-carbonyl)-1H,4H,5H,6H,7H-pyrazolo[4,3-c]pyridine-3-carbonyl]azetidin-3-yl}propan-2-ol]	1 to 25 µM	< 100 µM	> 32 µM	
CN(CCO)C(=O)c1n[nH]c2c1CN(C(=O)c1cc3c(F)c(F)c(F)cc3[nH]1)CC2 [Example 8, N-(2-hydroxyethyl)-N-methyl-5-(4,5,6-trifluoro-1H-indole-2-carbonyl)-1H,4H,5H,6H,7H-pyrazolo[4,3-c]pyridine-3-carboxamide]	< 1 µM	< 5 µM	> 10 µM	
CN(CCS(C)(=O)=O)C(=O)c1n[nH]c2c1CN(C(=O)c1cc3ccccc3[nH]1)CC2 [Example 150, 5-(1H-indole-2-carbonyl)-N-(2-methanesulfonylethyl)-N-methyl-1H,4H,5H,6H,7H-pyrazolo[4,3-c]pyridine-3-carboxamide]	1 to 25 µM	< 100 µM	> 10 µM	
O=C(c1cc2ccccc2[nH]1)N1CCc2[nH]nc(C(=O)N3CCCC34CC4)c2C1 [Example 184, 2-(3-{4-azaspiro[2.4]heptane-4-carbonyl}-1H,4H,5H,6H,7H-pyrazolo[4,3-c]pyridine-5-carbonyl)-1H-indole]	< 1 µM	< 5 µM	> 10 µM	
CN(CCO)C(=O)c1n[nH]c2c1CN(C(=O)c1cc3c(Cl)cccc3[nH]1)CC2 [Example 58, 5-(4-chloro-1H-indole-2-carbonyl)-N-(2-hydroxyethyl)-N-methyl-1H,4H,5H,6H,7H-pyrazolo[4,3-c]pyridine-3-carboxamide]	< 1 µM	< 5 µM	> 100 µM	
CC(=O)NCCN(C)C(=O)c1n[nH]c2c1CN(C(=O)c1cc3ccccc3[nH]1)CC2 [Example 149, N-(2-{1-[5-(1H-indole-2-carbonyl)-1H,4H,5H,6H,7H-pyrazolo[4,3-c]pyridin-3-yl]-N-methylformamido}ethyl)acetamide]	1 to 25 µM	< 100 µM	> 10 µM	
CN(C(=O)c1n[nH]c2c1CN(C(=O)c1cc3ccccc3[nH]1)CC2)C1(CO)CC1 [Example 33, N-[1-(hydroxymethyl)cyclopropyl]-5-(1H-indole-2-carbonyl)-N-methyl-1H,4H,5H,6H,7H-pyrazolo[4,3-c]pyridine-3-carboxamide]	< 1 µM	< 5 µM	> 10 µM	
CN(C(=O)c1[nH]nc2c1CN(C(=O)c1cc3ccccc3[nH]1)CC2)[C@H]1CCC[C@@H]1O [Example 252, N-[(1S,2S)-2-hydroxycyclopentyl]-5-(1H-indole-2-carbonyl)-N-methyl-2H,4H,5H,6H,7H-pyrazolo[4,3-c]pyridine-3-carboxamide]	< 1 µM	< 5 µM	> 10 µM	
O=C(c1cc2ccccc2[nH]1)N1CCc2[nH]nc(C(=O)N3CCC(F)(F)CC3)c2C1 [Example 190, 2-[3-(4,4-difluoropiperidine-1-carbonyl)-1H,4H,5H,6H,7H-pyrazolo[4,3-c]pyridine-5-carbonyl]-1H-indole]	< 1 µM	< 5 µM	> 10 µM	
CCc1cccc2[nH]c(C(=O)N3CCc4n[nH]c(C(=O)N(C)C5CC5)c4C3)cc12 [Example 328, N-cyclopropyl-5-(4-ethyl-1H-indole-2-carbonyl)-N-methyl-2H,4H,5H,6H,7H-pyrazolo[4,3-c]pyridine-3-carboxamide]	< 1 µM	< 5 µM	> 10 µM	
CC(C)OC(=O)[C@H](C)NP(=O)(OCCCN(C)C(=O)c1n[nH]c2c1CN(C(=O)c1cc3ccccc3[nH]1)CC2)Oc1ccccc1 (stereo partly drawn) [Example 70, propan-2-yl (2S)-2-{[(3-{1-[5-(1H-indole-2-carbonyl)-1H,4H,5H,6H,7H-pyrazolo[4,3-c]pyridin-3-yl]-N-methylformamido}propoxy)(phenoxy)phosphoryl]amino}propanoate]		< 5 µM	> 32 µM	1 to 25 µM
CCOCC1(N(C)C(=O)c2n[nH]c3c2CN(C(=O)c2cc4ccccc4[nH]2)CC3)CC1 [Example 207, N-[1-(ethoxymethyl)cyclopropyl]-5-(1H-indole-2-carbonyl)-N-methyl-1H,4H,5H,6H,7H-pyrazolo[4,3-c]pyridine-3-carboxamide]	< 1 µM	< 5 µM	> 10 µM	
CN(CC1CCOCC1)C(=O)c1n[nH]c2c1CN(C(=O)c1cc3ccccc3[nH]1)CC2 [Example 85, 5-(1H-indole-2-carbonyl)-N-methyl-N-[(oxan-4-yl)methyl]-1H,4H,5H,6H,7H-pyrazolo[4,3-c]pyridine-3-carboxamide]	1 to 25 µM	< 100 µM	> 100 µM	
CN1CCN(C(=O)c2n[nH]c3c2CN(C(=O)c2cc4ccccc4[nH]2)CC3)CC1 [Example 98, 2-[3-(4-methylpiperazine-1-carbonyl)-1H,4H,5H,6H,7H-pyrazolo[4,3-c]pyridine-5-carbonyl]-1H-indole]	1 to 25 µM	< 100 µM	> 32 µM	
O=C(c1cc2cc(Cl)ccc2[nH]1)N1CCc2[nH]ncc2C1 [Example 122, 5-chloro-2-{1H,4H,5H,6H,7H-pyrazolo[4,3-c]pyridine-5-carbonyl}-1H-indole]	1 to 25 µM	< 100 µM	> 100 µM	
CN(CCO)C(=O)c1n[nH]c2c1CN(C(=O)c1cc3c(C(F)F)ccc(F)c3[nH]1)CC2 [Example 172, 5-[4-(difluoromethyl)-7-fluoro-1H-indole-2-carbonyl]-N-(2-hydroxyethyl)-N-methyl-1H,4H,5H,6H,7H-pyrazolo[4,3-c]pyridine-3-carboxamide]	1 to 25 µM	< 5 µM	> 10 µM	
O=C(c1cc2ccccc2[nH]1)N1CCc2[nH]nc(-c3cscn3)c2C1 [Example 47, 2-[3-(1,3-thiazol-4-yl)-1H,4H,5H,6H,7H-pyrazolo[4,3-c]pyridine-5-carbonyl]-1H-indole]	< 1 µM	< 5 µM	> 100 µM	
